Data on 5 compounds can be found in US8198294B2, “Treatment of dyskinesia” (Motac Neuroscience Limited, priority 2001, dated 2012).

Structures are written as SMILES.

The test system of this test is MPTP-lesioned marmoset. Kind of test: L-DOPA-induced dyskinesia in MPTP-treated marmoset model of Parkinson's disease. The class given is in vivo, common marmosets (Callithrix jacchus). The following applies: for Median total dyskinesia scores compared to animals treated with L-DOPA and vehicle / Animals in which dyskinesia was completely abolished: antagonist 10 mg/kg i.p. with L-DOPA 8 mg/kg p.o.; for Median total dyskinesia scores compared to animals treated with L-DOPA and vehicle: cumulative scores; for Animals in which dyskinesia was completely abolished: n=6. As for the experimental part:
The effect of the selective mu opioid receptor antagonist Cyprodime on dyskinesia was assessed in a 1-methyl-4-phenyl-1,2,3,6-tetrahydropyridine (MPTP)-treated marmoset model of Parkinson's disease.
Six adult common marmosets (Callithrix jacchus) were obtained from a closed colony bred at Manchester University, BSU. This study was conducted in the U.K. in accordance with the requirements of The Animals (Scientific Procedures) Act, 1986. The animals were kept in controlled housing conditions, with constant temperature (25° C.), relative humidity (50%) and 12 h light/dark cycles (08.00-20.00 light on). The animals had free access to food (Masuri primate diet-E, Scientific Dietary Services, UK), fresh fruit supplements and water. Marmosets were rendered parkinsonian by treatment with 1-methyl-4-phenyl-1,2,3,6-tetrahydropyridine (MPTP) hydrochloride (Sigma, 2 mg/kg s.c. for 5 consecutive days). […] The animals were allowed to recover for a period of 14 weeks until behavioural assessment was commenced.
Dyskinesia was established in these animals by twice daily treatment with L-DOPA (10 mg/kg p.o. as Madopar Dispersible®) for 3 weeks.
Opioid antagonists, or vehicle, were administered with L-DOPA to assess the effects of adjunctive treatment on L-DOPA-induced dyskinesia and the anti-parkinsonian efficacy of L-DOPA. All animals received all treatments. Treatments in any one animal were separated by at least three days. Naltrexone (non-selective antagonist) was administered at a dose of 10 mg/kg (i.p), cyprodime (mu selective antagonist) was administered at a dose of 10 mg/kg (i.p.), naltrindole (delta selective antagonist) was administered at a dose of 10 mg/kg (i.p.), nor-binaltorphimine (nor-BNI, kappa selective antagonist) was administered at a dose of 20 mg/kg (i.p.). Drugs or vehicle were administered with L-DOPA treatment (8 mg/kg p.o.). Behaviour was assessed for 3 hours post drug administration.
A battery of behavioural assessments was performed to assess the intensity, range and speed of movements. In addition, postural abnormalities and dyskinesia were assessed. • 1) Parkinsonian disability—non-parametric measures based on the following scales • i) Motor activity (repertoire) score: 0=no movement at all, 1=movement of head or trunk, 2=movement of limbs but no locomotion, on the floor of the cage, 3=on wall of cage/perch, movement of head or trunk, 4=on wall of cage/movement of limbs but no locomotion, 5=walking around/eating on floor of cage, 6=hopping on floor of cage, 7=climbing onto wall of cage or perch, 8=climbing up and down the walls of the cage or along perch, 9=running, jumping, climbing between cage walls/perch/roof, uses limbs through a wide range of motion and activity. • ii) Bradykinesia score: 0=normal speed of movement, 1=moderate slowing of movement, difficulty initiating and maintaining movement 2=akinetic, unable to move (maximum score in 30 minutes=12). • iii) Posture score: 0=normal, upright, holds head up, 1=impaired, crouched, face down. (maximum score in 30 minutes=6). • 2) Dyskinesia • 0=Absent • 1=Mild, fleeting • 2=Moderate, not interfering with normal activity • 3=Marked, at times interfering with normal activity • 4=Severe, continuous, replacing normal activity
Parameters 1 and 2 were assessed every 30 minutes throughout a six hour period by post-hoc analysis of videotape recordings. Assessment was made by an observer blinded to the treatment administered.
Non-parametric measures of mobility, bradykinesia, posture and dyskinesia were cumulated and compared between treatments with a Friedman's test with post hoc Dunn's test where appropriate.

[1] abbreviates: L-DOPA 8 mg/kg p.o., MPTP-treated marmosets.

For `N[C@@H](Cc1ccc(O)c(O)c1)C(=O)O` [L-DOPA], under setting [1], the “Parkinsonian symptoms after L-DOPA treatment” value is “reversed” and the “Time to commencement of dyskinesia after L-DOPA administration” value is no more than 5 min.

In the case of `COc1cccc2c1[C@]13CCN(CC4CC4)[C@H](C2)[C@]1(OC)CCC(=O)C3` [cyprodime], the “Animals in which dyskinesia was completely abolished” value came out at 100%. Besides, the “Dyskinesia exhibited by each treated animal” value (10 mg/kg i.p. with L-DOPA 8 mg/kg p.o., individual animals) was “minimal or no dyskinesia”. Also, under “n=6, FIG. 1”, the “Median total dyskinesia scores compared to animals treated with L-DOPA and vehicle” value is given as “markedly reduced”.

Take `O=C1CC[C@@]2(O)[C@H]3Cc4ccc(O)c5c4[C@@]2(CCN3CC2CC2)[C@H]1O5` [naltrexone]: the “Animals in which dyskinesia was completely abolished” value was 33%. The “Median total dyskinesia scores compared to animals treated with L-DOPA and vehicle” value (n=6, FIG. 1) was “reduced”.

Turning to `Oc1ccc2c3c1O[C@H]1c4[nH]c5ccccc5c4C[C@@]4(O)[C@@H](C2)N(CC2CC2)CC[C@]314` [naltrindole], the “Animals in which dyskinesia was completely abolished” value is 50%. The “Median total dyskinesia scores compared to animals treated with L-DOPA and vehicle” value (n=6, FIG. 1) is “reduced”.

Consider `Oc1ccc2c3c1O[C@H]1c4[nH]c5c(c4C[C@@]4(O)[C@@H](C2)N(CC2CC2)CC[C@]314)C[C@@]1(O)[C@H]2Cc3ccc(O)c4c3[C@@]1(CCN2CC1CC1)[C@H]5O4` [nor-BNI, nor-binaltorphimine], for which the “Median total dyskinesia scores (effect on L-DOPA-induced dyskinesia)” value (antagonist 20 mg/kg i.p. with L-DOPA 8 mg/kg p.o., n=6, FIG. 1) is recorded as “no effect”.
